Data taken from the supplement of paper PMC12076712.

What was measured:
Test in all cases: pIC50, kinobeads binding competition
[1] = molecular target: T1, EPHB4 (UniProt P54760); conditions: cell material: Lysate mix
T1 sequence (whole entry): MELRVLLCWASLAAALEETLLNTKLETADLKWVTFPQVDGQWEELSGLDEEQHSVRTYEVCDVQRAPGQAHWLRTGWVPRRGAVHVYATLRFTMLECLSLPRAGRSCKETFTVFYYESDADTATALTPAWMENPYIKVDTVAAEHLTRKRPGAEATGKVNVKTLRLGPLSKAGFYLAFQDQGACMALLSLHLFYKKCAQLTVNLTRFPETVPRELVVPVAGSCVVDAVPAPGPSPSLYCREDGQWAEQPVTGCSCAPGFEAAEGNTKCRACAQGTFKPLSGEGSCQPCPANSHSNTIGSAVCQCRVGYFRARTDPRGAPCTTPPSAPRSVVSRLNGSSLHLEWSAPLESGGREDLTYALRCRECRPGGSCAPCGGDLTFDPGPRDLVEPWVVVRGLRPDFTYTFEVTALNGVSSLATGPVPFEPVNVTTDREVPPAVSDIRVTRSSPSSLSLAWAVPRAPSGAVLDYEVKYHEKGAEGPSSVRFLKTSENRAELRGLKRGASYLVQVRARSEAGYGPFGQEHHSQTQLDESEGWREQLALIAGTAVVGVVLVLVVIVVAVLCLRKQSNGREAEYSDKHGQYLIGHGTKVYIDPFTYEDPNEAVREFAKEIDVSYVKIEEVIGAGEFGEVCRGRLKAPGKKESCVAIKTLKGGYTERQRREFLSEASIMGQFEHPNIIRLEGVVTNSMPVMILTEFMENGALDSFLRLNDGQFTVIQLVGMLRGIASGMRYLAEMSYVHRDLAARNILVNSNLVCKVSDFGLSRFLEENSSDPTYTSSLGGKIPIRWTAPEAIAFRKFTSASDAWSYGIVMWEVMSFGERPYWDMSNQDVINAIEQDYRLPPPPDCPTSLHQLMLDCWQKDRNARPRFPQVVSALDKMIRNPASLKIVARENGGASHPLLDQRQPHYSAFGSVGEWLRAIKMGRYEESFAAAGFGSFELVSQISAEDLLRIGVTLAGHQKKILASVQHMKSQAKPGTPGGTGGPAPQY
How it was run: (§1)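 Either living Jurkat cells (60 min at 37 °C, then lysis) or lysates (60 min at 4 °C) were treated with nine compound concentrations from a top of 30 μM, in 1:4 steps for cells and 1:5 steps for lysates. The lysates were from Jurkat cells or a 1:1:1:1 mix of HEK293, K-562, HepG2 and placenta. Kinobeads-bound proteins were digested and quantified by TMT10 LC-MS/MS. pIC50 was calculated by logistic dose-response fitting (R drc package) of fold changes relative to vehicle, in biological duplicates.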

[2] = molecular target: FGFR1 (UniProt P11362)
How it was run: as §1

[3] = molecular target: INSR (UniProt P06213)
How it was run: as §1

[4] = molecular target: Jak2 (UniProt O60674)
How it was run: as §1

[5] = molecular target: MAST3 (UniProt O60307)
How it was run: as §1

[6] = molecular target: PRKCQ (UniProt Q04759)
How it was run: as §1

[7] = molecular target: T2, PRKX (UniProt P51817)
T2 sequence (whole entry): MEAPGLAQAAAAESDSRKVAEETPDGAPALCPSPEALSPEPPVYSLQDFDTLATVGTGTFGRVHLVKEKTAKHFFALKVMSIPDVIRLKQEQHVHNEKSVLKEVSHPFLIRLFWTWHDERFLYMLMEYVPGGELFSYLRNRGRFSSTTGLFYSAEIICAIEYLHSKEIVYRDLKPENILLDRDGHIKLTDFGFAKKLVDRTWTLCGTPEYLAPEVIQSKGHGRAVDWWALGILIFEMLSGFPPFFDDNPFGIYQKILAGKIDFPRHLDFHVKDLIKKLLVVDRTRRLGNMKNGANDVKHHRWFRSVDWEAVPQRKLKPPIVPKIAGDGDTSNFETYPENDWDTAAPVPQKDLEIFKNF
How it was run: as §1

[8] = molecular target: T3, UniProt O60285; conditions: cell material: Lysate mix
T3 sequence (whole entry): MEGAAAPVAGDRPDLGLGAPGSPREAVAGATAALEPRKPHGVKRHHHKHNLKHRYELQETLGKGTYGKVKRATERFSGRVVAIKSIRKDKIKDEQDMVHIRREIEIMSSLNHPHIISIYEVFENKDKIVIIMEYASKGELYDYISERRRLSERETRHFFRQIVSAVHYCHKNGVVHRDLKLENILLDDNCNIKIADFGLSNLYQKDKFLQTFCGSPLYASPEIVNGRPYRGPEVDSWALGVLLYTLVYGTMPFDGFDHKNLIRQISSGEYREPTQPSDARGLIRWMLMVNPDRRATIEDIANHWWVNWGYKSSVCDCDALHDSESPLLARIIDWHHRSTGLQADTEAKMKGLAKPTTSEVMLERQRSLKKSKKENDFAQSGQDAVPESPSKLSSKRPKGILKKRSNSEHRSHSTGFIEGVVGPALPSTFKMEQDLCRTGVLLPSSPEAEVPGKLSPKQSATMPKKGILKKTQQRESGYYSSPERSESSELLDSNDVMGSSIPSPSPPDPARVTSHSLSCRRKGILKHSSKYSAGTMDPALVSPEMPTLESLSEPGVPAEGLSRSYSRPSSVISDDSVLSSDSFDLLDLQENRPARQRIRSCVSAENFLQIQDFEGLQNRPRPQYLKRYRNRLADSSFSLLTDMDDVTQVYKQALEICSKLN
How it was run: as §1

[9] = molecular target: UniProt P07947
How it was run: as §1

[10] = molecular target: UniProt P35968; conditions: cell material: Lysate mix
How it was run: as §1

[11] = molecular target: UniProt P48730
How it was run: as §1

Sequence of UniProt P48730 (P48730 whole entry, looked up): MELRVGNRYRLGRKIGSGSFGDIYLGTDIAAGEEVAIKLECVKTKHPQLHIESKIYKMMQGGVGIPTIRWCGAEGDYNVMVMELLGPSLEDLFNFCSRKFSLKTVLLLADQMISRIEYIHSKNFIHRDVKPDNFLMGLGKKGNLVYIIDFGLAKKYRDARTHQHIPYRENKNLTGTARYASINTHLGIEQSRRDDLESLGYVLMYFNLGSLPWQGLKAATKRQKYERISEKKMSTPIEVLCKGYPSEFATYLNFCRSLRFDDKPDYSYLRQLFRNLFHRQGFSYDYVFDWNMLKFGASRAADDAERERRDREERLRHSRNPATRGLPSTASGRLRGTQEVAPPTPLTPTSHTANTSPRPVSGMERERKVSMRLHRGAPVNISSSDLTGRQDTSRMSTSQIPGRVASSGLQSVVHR
Sequence of UniProt P07947 (P07947 whole entry, looked up): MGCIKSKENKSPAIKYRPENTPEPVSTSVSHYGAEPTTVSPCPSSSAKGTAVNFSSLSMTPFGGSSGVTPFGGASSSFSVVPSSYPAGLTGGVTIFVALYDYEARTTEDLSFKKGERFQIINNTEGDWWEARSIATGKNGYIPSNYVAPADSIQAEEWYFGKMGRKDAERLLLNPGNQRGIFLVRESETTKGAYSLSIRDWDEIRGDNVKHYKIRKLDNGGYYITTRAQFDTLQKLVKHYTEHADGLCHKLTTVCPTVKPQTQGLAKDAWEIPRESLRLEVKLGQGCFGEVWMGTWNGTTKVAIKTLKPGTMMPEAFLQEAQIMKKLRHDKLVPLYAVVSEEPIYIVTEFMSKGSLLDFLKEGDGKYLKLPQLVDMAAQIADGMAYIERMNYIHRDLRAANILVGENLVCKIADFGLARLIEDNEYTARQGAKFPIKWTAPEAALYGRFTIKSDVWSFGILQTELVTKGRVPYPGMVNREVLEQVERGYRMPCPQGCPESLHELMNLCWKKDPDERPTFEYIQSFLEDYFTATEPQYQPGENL
Sequence of UniProt P35968 (P35968 whole entry): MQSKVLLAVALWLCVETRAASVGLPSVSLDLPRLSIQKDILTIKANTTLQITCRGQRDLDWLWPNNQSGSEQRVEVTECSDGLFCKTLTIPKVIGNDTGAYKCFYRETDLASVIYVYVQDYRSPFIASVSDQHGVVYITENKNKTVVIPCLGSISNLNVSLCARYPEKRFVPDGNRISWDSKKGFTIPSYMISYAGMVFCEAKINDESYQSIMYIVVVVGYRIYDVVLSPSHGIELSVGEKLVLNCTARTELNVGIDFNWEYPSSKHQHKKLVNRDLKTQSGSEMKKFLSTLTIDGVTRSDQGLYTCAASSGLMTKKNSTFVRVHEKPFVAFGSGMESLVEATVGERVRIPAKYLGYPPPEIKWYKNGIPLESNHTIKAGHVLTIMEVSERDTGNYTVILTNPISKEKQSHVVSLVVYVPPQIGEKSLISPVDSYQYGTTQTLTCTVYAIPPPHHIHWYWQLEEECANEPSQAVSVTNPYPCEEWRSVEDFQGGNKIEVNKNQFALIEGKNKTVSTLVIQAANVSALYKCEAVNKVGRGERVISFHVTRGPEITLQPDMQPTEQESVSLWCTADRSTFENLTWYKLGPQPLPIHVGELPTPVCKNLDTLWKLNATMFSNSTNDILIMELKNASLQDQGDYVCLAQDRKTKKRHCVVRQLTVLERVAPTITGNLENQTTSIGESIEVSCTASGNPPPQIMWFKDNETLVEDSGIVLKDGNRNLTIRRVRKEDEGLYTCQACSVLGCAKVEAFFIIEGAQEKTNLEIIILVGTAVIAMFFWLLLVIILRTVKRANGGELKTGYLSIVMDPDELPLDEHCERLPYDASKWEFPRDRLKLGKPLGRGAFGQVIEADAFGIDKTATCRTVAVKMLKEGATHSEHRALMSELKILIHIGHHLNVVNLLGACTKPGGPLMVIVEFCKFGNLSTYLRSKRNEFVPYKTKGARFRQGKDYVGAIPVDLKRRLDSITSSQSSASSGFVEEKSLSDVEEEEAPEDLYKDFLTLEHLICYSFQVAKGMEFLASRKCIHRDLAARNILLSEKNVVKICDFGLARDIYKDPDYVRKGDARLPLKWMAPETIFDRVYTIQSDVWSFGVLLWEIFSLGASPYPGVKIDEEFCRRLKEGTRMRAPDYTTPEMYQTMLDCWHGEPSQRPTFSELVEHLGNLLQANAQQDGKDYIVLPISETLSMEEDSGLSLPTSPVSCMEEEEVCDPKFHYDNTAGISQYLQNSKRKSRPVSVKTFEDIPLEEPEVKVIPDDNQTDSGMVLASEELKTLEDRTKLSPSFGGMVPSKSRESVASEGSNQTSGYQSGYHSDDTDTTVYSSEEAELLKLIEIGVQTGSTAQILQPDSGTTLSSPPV
Sequence of MAST3 (O60307 whole entry): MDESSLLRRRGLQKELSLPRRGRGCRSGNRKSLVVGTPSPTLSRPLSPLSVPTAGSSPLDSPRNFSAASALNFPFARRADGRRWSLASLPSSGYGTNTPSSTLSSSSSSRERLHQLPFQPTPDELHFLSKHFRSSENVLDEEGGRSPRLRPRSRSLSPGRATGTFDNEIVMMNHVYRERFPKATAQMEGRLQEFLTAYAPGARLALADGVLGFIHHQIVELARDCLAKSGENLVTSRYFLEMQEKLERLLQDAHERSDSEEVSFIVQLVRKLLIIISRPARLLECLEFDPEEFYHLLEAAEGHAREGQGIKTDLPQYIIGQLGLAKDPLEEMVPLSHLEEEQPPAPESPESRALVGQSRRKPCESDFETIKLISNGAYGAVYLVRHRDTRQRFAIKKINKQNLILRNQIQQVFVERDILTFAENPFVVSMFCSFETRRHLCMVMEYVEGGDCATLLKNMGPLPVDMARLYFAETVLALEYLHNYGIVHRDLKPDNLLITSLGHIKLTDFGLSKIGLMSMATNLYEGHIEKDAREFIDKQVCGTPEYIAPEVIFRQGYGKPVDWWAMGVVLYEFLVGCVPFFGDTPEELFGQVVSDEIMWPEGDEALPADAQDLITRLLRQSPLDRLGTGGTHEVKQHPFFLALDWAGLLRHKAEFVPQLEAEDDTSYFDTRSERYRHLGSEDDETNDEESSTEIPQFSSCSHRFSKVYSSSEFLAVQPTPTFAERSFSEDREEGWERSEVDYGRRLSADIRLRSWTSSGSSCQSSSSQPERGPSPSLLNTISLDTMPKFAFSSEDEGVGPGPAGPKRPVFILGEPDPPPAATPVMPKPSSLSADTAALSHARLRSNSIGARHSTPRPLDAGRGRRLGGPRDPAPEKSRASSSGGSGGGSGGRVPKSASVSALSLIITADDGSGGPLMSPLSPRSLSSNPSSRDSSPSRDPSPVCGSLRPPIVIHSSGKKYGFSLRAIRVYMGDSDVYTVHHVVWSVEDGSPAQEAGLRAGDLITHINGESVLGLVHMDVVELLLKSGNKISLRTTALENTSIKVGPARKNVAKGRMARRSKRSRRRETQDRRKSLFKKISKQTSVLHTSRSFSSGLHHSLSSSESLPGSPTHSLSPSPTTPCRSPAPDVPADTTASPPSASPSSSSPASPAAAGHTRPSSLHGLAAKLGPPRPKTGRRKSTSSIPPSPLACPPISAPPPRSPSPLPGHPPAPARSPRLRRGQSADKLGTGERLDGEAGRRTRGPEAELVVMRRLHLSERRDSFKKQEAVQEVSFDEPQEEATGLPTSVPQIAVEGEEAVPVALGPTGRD
Sequence of PRKCQ (Q04759 whole entry, looked up): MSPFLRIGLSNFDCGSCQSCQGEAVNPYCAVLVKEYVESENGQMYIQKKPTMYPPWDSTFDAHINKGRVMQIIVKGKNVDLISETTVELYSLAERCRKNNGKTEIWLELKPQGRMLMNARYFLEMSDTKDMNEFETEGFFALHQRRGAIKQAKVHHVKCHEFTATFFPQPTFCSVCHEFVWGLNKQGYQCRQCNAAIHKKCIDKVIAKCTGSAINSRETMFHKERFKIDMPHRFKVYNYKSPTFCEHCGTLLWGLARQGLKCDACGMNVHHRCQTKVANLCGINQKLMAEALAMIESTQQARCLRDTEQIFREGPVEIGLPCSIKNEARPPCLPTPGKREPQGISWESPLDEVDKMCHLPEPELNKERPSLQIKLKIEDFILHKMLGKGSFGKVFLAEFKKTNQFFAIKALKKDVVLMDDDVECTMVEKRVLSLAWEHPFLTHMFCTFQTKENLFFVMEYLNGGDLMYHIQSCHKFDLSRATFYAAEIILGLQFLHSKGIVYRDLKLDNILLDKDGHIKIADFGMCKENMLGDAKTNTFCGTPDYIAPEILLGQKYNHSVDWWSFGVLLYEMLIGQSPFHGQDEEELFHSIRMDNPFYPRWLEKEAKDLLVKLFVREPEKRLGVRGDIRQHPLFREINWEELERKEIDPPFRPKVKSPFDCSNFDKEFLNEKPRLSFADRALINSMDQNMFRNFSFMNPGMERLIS

Compound | pIC50 [1] | pIC50 ([2]; cell material: Jurkat cells) | pIC50 ([2]; cell material: Jurkat lysate) | pIC50 ([2]; cell material: Lysate mix) | pIC50 ([3]; cell material: Jurkat cells) | pIC50 ([3]; cell material: Jurkat lysate) | pIC50 ([3]; cell material: Lysate mix) | pIC50 ([4]; cell material: Jurkat lysate) | pIC50 ([4]; cell material: Lysate mix) | pIC50 ([5]; cell material: Jurkat cells) | pIC50 ([5]; cell material: Jurkat lysate) | pIC50 ([5]; cell material: Lysate mix) | pIC50 ([6]; cell material: Jurkat cells) | pIC50 ([6]; cell material: Jurkat lysate) | pIC50 ([6]; cell material: Lysate mix) | pIC50 ([7]; cell material: Jurkat cells) | pIC50 ([7]; cell material: Jurkat lysate) | pIC50 ([7]; cell material: Lysate mix) | pIC50 [8] | pIC50 ([9]; cell material: Jurkat cells) | pIC50 ([9]; cell material: Jurkat lysate) | pIC50 ([9]; cell material: Lysate mix) | pIC50 [10] | pIC50 ([11]; cell material: Jurkat lysate) | pIC50 ([11]; cell material: Lysate mix) | pIC50 ([11]; cell material: Jurkat cells)
C#CCNC(=O)c1cc(Nc2cc(C3CC3)[nH]n2)nc(N2CCN(Cc3ccc(S(=O)(=O)F)cc3)CC2)n1 | < 4.52 | 5.72 | < 4.52 | 4.81 | 4.82 | < 4.52 | < 4.52 | < 4.52 | 4.9 | 6.54 | 6.27 | 6.56 | 5.42 | < 4.52 | < 4.52 | 5.76 | < 4.52 | 5.26 | 4.83 | 6.61 | 5.84 | 6.62 | < 4.52 | < 4.52 | < 4.52 | –
C#CCNC(=O)c1cc(Nc2cc(C)[nH]n2)nc(N2CCN(Cc3ccc(S(=O)(=O)F)cc3)CC2)n1 | < 4.52 | – | – | < 4.52 | – | – | < 4.52 | – | 4.93 | – | – | 6.16 | – | – | < 4.52 | – | – | < 4.52 | < 4.52 | – | – | 6.3 | < 4.52 | – | < 4.52 | –
Cc1cc(Nc2cc(C(=O)NCCNC(=O)OC3CC/C=C/CCC3)nc(N3CCN(Cc4ccc(S(=O)(=O)F)cc4)CC3)n2)n[nH]1 (stereo not drawn) | < 4.52 | – | – | < 4.52 | – | – | < 4.52 | – | < 4.52 | – | – | 4.84 | – | – | < 4.52 | – | – | < 4.52 | < 4.52 | – | – | 5.25 | < 4.52 | – | < 4.52 | –
O=C(NCCNC(=O)c1cc(Nc2cc(C3CC3)[nH]n2)nc(N2CCN(Cc3ccc(S(=O)(=O)F)cc3)CC2)n1)OC1CC/C=C/CCC1 (stereo not drawn) | < 4.52 | – | < 4.52 | < 4.52 | < 4.52 | < 4.52 | < 4.52 | < 4.52 | < 4.52 | 6.5 | 5.06 | 4.9 | – | < 4.52 | < 4.52 | 5.28 | < 4.52 | < 4.52 | < 4.52 | 6.18 | 4.62 | 5.24 | < 4.52 | < 4.52 | < 4.52 | < 4.52
CCNC(=O)c1cc(Nc2cc(C)[nH]n2)nc(N2CCN(Cc3ccc(S(=O)(=O)F)cc3)CC2)n1 | < 4.52 | – | – | < 4.52 | – | – | < 4.52 | – | 4.98 | – | – | 6.39 | – | – | < 4.52 | – | – | < 4.52 | < 4.52 | – | – | 7.16 | < 4.52 | – | < 4.52 | –
CCNC(=O)c1cc(Nc2cc(C3CC3)[nH]n2)nc(N2CCN(Cc3ccc(S(=O)(=O)F)cc3)CC2)n1 | < 4.52 | – | – | 5.24 | – | – | < 4.52 | – | 4.73 | – | – | 6.22 | – | – | < 4.52 | – | – | 5 | 4.98 | – | – | 6.44 | < 4.52 | – | < 4.52 | –
